Results from patent publication US8658668B2, “PI3 kinase/mTOR dual inhibitor” (Eli Lilly and Company, priority 2011, dated 2014).

Columns and labels:
PI3Ka = PI3Ka (Homo sapiens, UniProt P42336); assay: PI3Ka Scintillation Proximity Assay; type: biochemical; conditions: 10 μM ATP; n=2; read-out: absolute IC50
Description: Use the PI3Ka Scintillation Proximity Assay (PI3Ka SPA) to determine compound IC50 values against PI3Ka kinase. This assay assesses the activity PI3Ka in the presence of compound inhibitors by measuring incorporation of γ-P^33-ATP into phosphatidylinositol (4,5)bisphosphate (PIP2). Perform the kinase reactions in 40 μL reaction volumes in 96-well half-area flat bottom white with clear bottom polystyrene plates. Add PI3Ka to start the reaction. Final reaction conditions are 43.75 mM 2,2-bis(hydroxymethyl)-2,2′,2″-nitrilotriethanol (Bis-Tris) pH 7.0, 306 mM sodium chloride (NaCl), 1.76 mM polyethylene glycol octylphenyl ether (Triton® X-100), 10 μM adenosine triphosphate (ATP), 2.9 mM magnesium chloride (MgCl2) and 1 μCi per well γ-P^33-adenosine triphosphate (γ-P^33-ATP), 5.0 nM PI3Ka human recombinant enzyme, 0.2 mM palmitoyl-oleoyl phosphatidylserine (POPS), 0.04 mM phosphatidylinositol (4,5)bisphosphate (PIP2), 4% DMSO and serial dilutions of compound (diluted 1:3 from 20,000 to 1 nM). Incubate at RT for 90 min after adding PI3Ka. Stop the reaction with the addition of 40 μL of a stopping buffer containing 2.5 mg/mL neomycin linked beads (Amersham, Cat# RPNQ0506) and 21 mM ethylenediaminetetraacetic acid (EDTA). Centrifuge plates for 30 min at 1000 revolutions per minute (RPM) and count radioactivity with a Wallac Microbeta Trilux normalized for P^33. […]

SJSA-1 = assay: Cell proliferation assay (CellTiter-Glo), SJSA-1; type: cell-based; conditions: Homo sapiens, SJSA-1, 72 h
Description: Plate cells in a 96-well plate at 2000 cells/well in 100 μL of cell specific medium (for U87MG use DMEM, 10% FBS, 25 mM 4-(2-hydroxyethyl)-1-piperazineethanesulfonic acid (HEPES), 1.0 mM sodium pyruvate, and 0.1 mM Non Essential Amino Acids (ATCC Cat.#30-2002); for HT1080 use Eagle's MEM, 10% FBS (ATCC Cat.#30-2003); for H1975, A2780, SJSA-1 and 786-O use RPMI 1640, 10% FBS (ATCC Cat.#30-2001); for A204 use McCoy's 5A, 10% FBS (ATCC Cat.#30-2007) except in column 1 use medium only as the blank control. Incubate the plates overnight at 37° C. and 5% CO2. On the next day, prepare compound stocks at 1 mM in DMSO and serially dilute in DMSO in a 96-well round bottom polypropylene plate. Assay compounds at 10 concentrations in duplicate, 4 compounds per plate.
Transfer 4 μL of the DMSO serial dilutions to a 96 well plate and add 196 μL of culture medium to create a 10× stock for dosing. Gently transfer 11 μL of each dosing stock to the corresponding well of the cell plate resulting in a 0.2% DMSO concentration and a 111 μL final volume. […]
Prepared the CellTiter-Glo reagent (Promega, Cat: G7571) and add 100 µL to each well after the incubation is complete, homogenize the cells by mixing on an orbital shaker for 2 min and then incubate at RT for 10 min to allow the luminescent signal to stabilize. Record the luminescent raw data with a Wallac Victor V plate reader. […]

[1] = system: PRXF PC3M human tumor xenograft cells; assay: Oncotest tumor clonogenic assay, PRXF PC3M; type: cell-based; conditions: PC-3M, colony formation, Prostate PRXF PC3M, adeno carcinoma, metastatic, pd, read-out: Absolute IC50

Sequence of PI3Ka (P42336 whole entry): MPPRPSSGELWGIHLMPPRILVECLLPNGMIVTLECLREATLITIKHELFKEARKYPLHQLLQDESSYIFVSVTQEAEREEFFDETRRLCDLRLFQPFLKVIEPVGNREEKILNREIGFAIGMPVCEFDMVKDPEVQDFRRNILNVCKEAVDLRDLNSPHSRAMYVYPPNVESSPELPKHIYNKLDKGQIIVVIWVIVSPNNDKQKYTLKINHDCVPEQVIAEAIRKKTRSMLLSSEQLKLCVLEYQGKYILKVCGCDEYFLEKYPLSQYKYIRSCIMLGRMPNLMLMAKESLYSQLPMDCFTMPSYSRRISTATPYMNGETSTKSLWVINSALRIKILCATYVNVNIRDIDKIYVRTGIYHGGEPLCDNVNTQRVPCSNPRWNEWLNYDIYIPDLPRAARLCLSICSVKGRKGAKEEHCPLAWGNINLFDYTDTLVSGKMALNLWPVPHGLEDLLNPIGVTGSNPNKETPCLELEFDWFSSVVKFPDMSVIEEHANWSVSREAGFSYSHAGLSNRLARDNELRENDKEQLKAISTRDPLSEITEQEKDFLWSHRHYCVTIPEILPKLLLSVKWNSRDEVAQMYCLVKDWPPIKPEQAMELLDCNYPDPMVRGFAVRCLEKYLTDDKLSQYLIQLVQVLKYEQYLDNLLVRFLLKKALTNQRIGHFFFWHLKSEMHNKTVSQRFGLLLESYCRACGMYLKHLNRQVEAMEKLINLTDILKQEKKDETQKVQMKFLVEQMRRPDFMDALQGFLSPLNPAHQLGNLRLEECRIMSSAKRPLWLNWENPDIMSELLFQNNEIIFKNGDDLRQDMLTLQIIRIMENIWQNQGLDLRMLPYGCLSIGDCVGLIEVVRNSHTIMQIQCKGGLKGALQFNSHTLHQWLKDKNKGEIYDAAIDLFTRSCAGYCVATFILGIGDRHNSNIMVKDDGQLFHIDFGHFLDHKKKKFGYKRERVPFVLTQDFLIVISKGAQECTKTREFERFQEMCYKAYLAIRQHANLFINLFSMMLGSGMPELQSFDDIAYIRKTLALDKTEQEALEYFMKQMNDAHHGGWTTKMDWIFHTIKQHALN
Sequence of PI3Ka (P27986 whole entry partner): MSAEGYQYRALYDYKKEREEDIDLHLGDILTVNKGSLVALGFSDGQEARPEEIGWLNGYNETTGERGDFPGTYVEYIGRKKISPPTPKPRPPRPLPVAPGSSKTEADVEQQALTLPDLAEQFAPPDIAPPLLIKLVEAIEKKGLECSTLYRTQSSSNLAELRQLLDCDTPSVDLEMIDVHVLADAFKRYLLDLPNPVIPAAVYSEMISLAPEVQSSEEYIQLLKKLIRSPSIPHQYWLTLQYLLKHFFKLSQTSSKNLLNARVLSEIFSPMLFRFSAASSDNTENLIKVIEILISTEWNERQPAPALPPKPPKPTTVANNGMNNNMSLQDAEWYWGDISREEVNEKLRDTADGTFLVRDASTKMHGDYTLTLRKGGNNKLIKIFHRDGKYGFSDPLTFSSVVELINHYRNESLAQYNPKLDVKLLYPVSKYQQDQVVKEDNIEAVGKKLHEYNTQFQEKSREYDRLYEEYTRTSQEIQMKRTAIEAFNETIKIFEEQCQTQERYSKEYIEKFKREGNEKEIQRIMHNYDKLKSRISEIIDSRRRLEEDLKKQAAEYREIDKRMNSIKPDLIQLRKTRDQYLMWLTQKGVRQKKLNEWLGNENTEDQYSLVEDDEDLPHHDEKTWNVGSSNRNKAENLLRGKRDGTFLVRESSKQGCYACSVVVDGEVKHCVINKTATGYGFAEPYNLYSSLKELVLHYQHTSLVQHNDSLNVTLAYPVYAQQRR

IC50 (PI3Ka): 6.07 nM | IC50 (SJSA-1): 96 nM | IC50 [1]: 208 nM
Structure (SMILES): CO[C@@H](C)Cn1c(=O)n(C)c2cnc3ccc(-c4cncc(C(C)(C)O)c4)cc3c21 [Example 1, 8-[5-(1-Hydroxy-1-methylethyl)pyridin-3-yl]-1-[(2S)-2-methoxypropyl]-3-methyl-1,3-dihydro-2H-imidazo[4,5-c]quinolin-2-one]
